Measured values published in patent US7872004B2, “6-(heterocyclyl-substituted benzyl)-4-oxoquinoline compound and use thereof as HIV integrase inhibitor” (Japan Tobacco Inc., priority 2006, dated 2011).

molecular target: T1, HIV integrase (Human immunodeficiency virus type 1 group M subtype B, UniProt P12497, F1332H); experiment: Determination of enzyme (HIV integrase) inhibitory activity; format: biochemical, HIV (Human Immunodeficiency Virus (type 1)); conditions: recombinant integrase protein (F185H), strand transfer plate assay, absorbance at 450 nm
T1 construct: HIV integrase full length gene; made in house; host or cells: Escherichia coli BL21(DE3)
From the text: The following explains evaluation methods of the HIV integrase inhibitory activity of the compound of the present invention.
(i) Construction of Recombinant Integrase Gene Expression System
HIV integrase full length gene (J. Virol., 67, 425-437 (1993)) in which phenylalanine at codon 185 was substituted by histidine, was inserted between the restriction enzyme NdeI and XhoI sites of plasmid pET21a(+) (Novagen), whereby an integrase expression vector pET21a-IN-F185H was constructed.
(ii) Production and Purification of Integrase Protein
Escherichia coli recombinant BL21(DE3) transformed with plasmid pET21a-IN-F185H obtained in (i) was shake cultured at 30° C. in a liquid medium containing ampicillin. When the culture reached the logarithmic growth phase, isopropyl-β-D-thiogalactopyranoside was added to promote expression of integrase gene. The culture was continued for 3 hr to promote accumulation of the integrase protein. The recombinant E. coli was collected in pellets by centrifugal separation and preserved at −80° C.
The E. coli was suspended in Lysis buffer ([…] HEPES (pH 7.5), 5 mM DTT, 10 mM CHAPS, 10% glycerol) containing 1M sodium chloride and subjected to repeat pressurization and depressurization for rupture, and centrifugal separation at 4° C., 40,000×g, 60 min to recover a water-soluble fraction (supernatant). This was diluted 10-fold with Lysis buffer free of sodium chloride, mixed with SP-Sepharose (GE healthcare Bioscience) and stirred at 4° C. for 60 min to allow adsorption of integrase protein to the resin. The resin was washed with Lysis buffer containing 100 mM sodium chloride and the integrase protein was eluted with Lysis buffer containing 1M sodium chloride.
The eluted integrase protein solution was subjected to a Superdex 75 (GE healthcare Bioscience) column for gel filtration. The protein was eluted with Lysis buffer containing 1M sodium chloride.
The obtained fractions of the integrase protein were collected and preserved at −80° C.
(iii) Preparation of DNA Solution
The following DNA synthesized by Greiner or FASMAC was dissolved in TE buffer (10 mM Tris-hydrochloric acid (pH 8.0), 1 mM EDTA) and mixed with donor DNA, target DNA, and each complementary strand (+ and − strands) to 1 μM. The mixture was heated at 95° C. for 5 min, 80° C. for 10 min, 70° C. for 10 min, 60° C. for 10 min, 50° C. for 10 min and 40° C. for 10 min and kept at 25° C. to give a double stranded DNA, which was used for the test.
(iv) Determination of Enzyme (HIV Integrase) Inhibitory Activity
The donor DNA was diluted with TE buffer to 10 nM (or 5 nM), of which 50 μl was added to each well of streptavidin-coated microtiter plate (Roche) and allowed to adsorb at 37° C. for 60 min. The plate was washed with phosphate buffer (Dulbecco's PBS, Sanko Junyaku Co., Ltd.) containing 0.1% Tween 20 and phosphate buffer. Then, an enzyme reaction mixture (70 μl), a test substance (10 μl) diluted with the enzyme reaction mixture and 100 μg/ml (or 64 μg/ml (2 μM)) integrase protein (10 μl) were added to each well and reacted at 37° C. for 60 min.
Composition of the enzyme reaction mixture: 30 mM MOPS (3-morpholinopropanesulfonic acid), 5 mM magnesium chloride, 3 mM DTT (dithiothreitol), 0.1 mg/ml BSA (bovine serum albumin), 5% glycerol, 10% DMSO (dimethyl sulfoxide), 0.01% Tween 20.
Then, 50 nM (or 25 nM) target DNA (10 μl) was added, reacted at 37° C. for 10 min and washed with phosphate buffer containing 0.1% Tween 20 to stop the reaction.
Then, 100 mU/ml peroxidase labeled anti-digoxigenin antibody solution (Roche, 100 μl) was added, and the mixture was reacted at 37° C. for 60 min, followed by washing with phosphate buffer containing 0.1% Tween 20.
A peroxidase color solution (Bio Rad, 100 μl) was added and allowed to react at room temperature for 4 min (or 3 min). The color reaction was stopped by adding IN sulfuric acid (100 μl). The absorbance at 450 nm was measured. […]

SMILES	IC50 [nM]
COc1cc2c(cc1Cc1cc(N3CC[C@H](O)C3)cc(Cl)c1F)c(=O)c(C(=O)O)cn2[C@H](CO)C(C)C [Example 9, 6-[3-chloro-2-fluoro-5-((S)-3-hydroxypyrrolidin-1-yl)benzyl]-1-((S)-1-hydroxymethyl-2-methylpropyl)-7-methoxy-4-oxo-1,4-dihydroquinoline-3-carboxylic acid]	< 10
COc1cc2c(cc1Cc1cc(-c3nccs3)cc(Cl)c1F)c(=O)c(C(=O)O)cn2[C@H](CO)C(C)C [Example 37, 6-[3-chloro-2-fluoro-5-(thiazol-2-yl)benzyl]-1-((S)-1-hydroxymethyl-2-methylpropyl)-7-methoxy-4-oxo-1,4-dihydroquinoline-3-carboxylic acid]	10 to 100
COc1cc2c(cc1Cc1cc(N3CCCC3=O)c(F)c(Cl)c1F)c(=O)c(C(=O)O)cn2[C@H](CO)C(C)C [Example 25, 6-[3-chloro-2,4-difluoro-5-(2-oxopyrrolidin-1-yl)benzyl]-1-((S)-1-hydroxymethyl-2-methylpropyl)-7-methoxy-4-oxo-1,4-dihydroquinoline-3-carboxylic acid]	< 10
COc1cc2c(cc1Cc1cc(N3CCOC3=O)cc(Cl)c1F)c(=O)c(C(=O)O)cn2[C@H](CO)C(C)C [Example 4, 6-[3-chloro-2-fluoro-5-(2-oxooxazolidin-3-yl)benzyl]-1-((S)-1-hydroxymethyl-2-methylpropyl)-7-methoxy-4-oxo-1,4-dihydroquinoline-3-carboxylic acid]	< 10
COc1cc2c(cc1Cc1cc(N3CCOCC3)c(F)c(Cl)c1F)c(=O)c(C(=O)O)cn2[C@H](CO)C(C)(C)C [Example 49, 6-[3-chloro-2,4-difluoro-5-(morpholin-4-yl)benzyl]-1-((S)-1-hydroxymethyl-2,2-dimethylpropyl)-7-methoxy-4-oxo-1,4-dihydroquinoline-3-carboxylic acid]	< 10
CCc1cc2c(cc1Cc1cc(N3CCCC3=O)c(F)c(Cl)c1F)c(=O)c(C(=O)O)cn2[C@H](CO)C(C)C [Example 26, 6-[3-chloro-2,4-difluoro-5-(2-oxopyrrolidin-1-yl)benzyl]-7-ethyl-1-((S)-1-hydroxymethyl-2-methylpropyl)-4-oxo-1,4-dihydroquinoline-3-carboxylic acid]	< 10
COc1cc2c(cc1Cc1cc(N3CCCCC3)cc(Cl)c1F)c(=O)c(C(=O)O)cn2[C@H](CO)C(C)C [Example 6, 6-[3-chloro-2-fluoro-5-(piperidin-1-yl)benzyl]-1-((S)-1-hydroxymethyl-2-methylpropyl)-7-methoxy-4-oxo-1,4-dihydroquinoline-3-carboxylic acid]	< 10
COc1cc2c(cc1Cc1cc(N3CCCC3)cc(Cl)c1F)c(=O)c(C(=O)O)cn2[C@H](CO)C(C)C [Example 3, 6-[3-chloro-2-fluoro-5-(pyrrolidin-1-yl)benzyl]-1-((S)-1-hydroxymethyl-2-methylpropyl)-7-methoxy-4-oxo-1,4-dihydroquinoline-3-carboxylic acid]	< 10
COc1cc2c(cc1Cc1cc(N3CCCC3=O)cc(Cl)c1F)c(=O)c(C(=O)O)cn2[C@H](CO)C(C)(C)C [Example 45, 6-[3-chloro-2-fluoro-5-(2-oxopyrrolidin-1-yl)benzyl]-1-((S)-1-hydroxymethyl-2,2-dimethylpropyl)-7-methoxy-4-oxo-1,4-dihydroquinoline-3-carboxylic acid]	< 10
COc1cc2c(cc1Cc1cc(N3CC[C@@H](F)C3)cc(Cl)c1F)c(=O)c(C(=O)O)cn2[C@H](CO)C(C)C [Example 13, 6-[3-chloro-2-fluoro-5-((R)-3-fluoropyrrolidin-1-yl)benzyl]-1-((S)-1-hydroxymethyl-2-methylpropyl)-7-methoxy-4-oxo-1,4-dihydroquinoline-3-carboxylic acid]	< 10
COc1cc2c(cc1Cc1cc(N3CCOCC3)cc(Cl)c1F)c(=O)c(C(=O)O)cn2[C@H](CO)C(C)C [Example 5, 6-[3-chloro-2-fluoro-5-(morpholin-4-yl)benzyl]-1-((S)-1-hydroxymethyl-2-methylpropyl)-7-methoxy-4-oxo-1,4-dihydroquinoline-3-carboxylic acid]	< 10
CCc1cc2c(cc1Cc1cc(N3CCOCC3)cc(Cl)c1F)c(=O)c(C(=O)O)cn2[C@H](CO)CCOC [Example 44, 6-[3-chloro-2-fluoro-5-(morpholin-4-yl)benzyl]-7-ethyl-1-((S)-1-hydroxymethyl-3-methoxypropyl)-4-oxo-1,4-dihydroquinoline-3-carboxylic acid]	10 to 100
CCc1cc2c(cc1Cc1cc(N3CCCC3=O)c(F)c(Cl)c1F)c(=O)c(C(=O)O)cn2[C@H](CO)C(C)(C)C [Example 55, 6-[3-chloro-2,4-difluoro-5-(2-oxopyrrolidin-1-yl)benzyl]-7-ethyl-1-((S)-1-hydroxymethyl-2,2-dimethylpropyl)-4-oxo-1,4-dihydroquinoline-3-carboxylic acid]	10 to 100
CCOC[C@@H](CO)n1cc(C(=O)O)c(=O)c2cc(Cc3cc(N4CCOCC4)cc(Cl)c3F)c(CC)cc21 [Example 1, 6-[3-chloro-2-fluoro-5-(morpholin-4-yl)benzyl]-1-((R)-1-ethoxymethyl-2-hydroxyethyl)-7-ethyl-4-oxo-1,4-dihydroquinoline-3-carboxylic acid]	< 10
COc1cc2c(cc1Cc1cc(N3CCCC3=O)c(F)c(Cl)c1F)c(=O)c(C(=O)O)cn2[C@H](CO)C(C)(C)C [Example 46, 6-[3-chloro-2,4-difluoro-5-(2-oxopyrrolidin-1-yl)benzyl]-1-((S)-1-hydroxymethyl-2,2-dimethylpropyl)-7-methoxy-4-oxo-1,4-dihydroquinoline-3-carboxylic acid]	< 10
CCO[C@H](C)[C@@H](CO)n1cc(C(=O)O)c(=O)c2cc(Cc3cc(N4CCOCC4)cc(Cl)c3F)c(CC)cc21 [Example 38, 6-[3-chloro-2-fluoro-5-(morpholin-4-yl)benzyl]-1-[(1R,2R)-2-ethoxy-1-(hydroxymethyl)propyl]-7-ethyl-4-oxo-1,4-dihydroquinoline-3-carboxylic acid]	< 10
CC(C)(C)[C@@H](CO)n1cc(C(=O)O)c(=O)c2cc(Cc3cc(N4CCCC4=O)c(F)c(Cl)c3F)ccc21 [Example 54, 6-[3-chloro-2,4-difluoro-5-(2-oxopyrrolidin-1-yl)benzyl]-1-((S)-1-hydroxymethyl-2,2-dimethylpropyl)-4-oxo-1,4-dihydroquinoline-3-carboxylic acid]	< 10
CCc1cc2c(cc1Cc1cc(N3CCOCC3)cc(Cl)c1F)c(=O)c(C(=O)O)cn2[C@H](CO)C(C)(C)OC [Example 43, 6-[3-chloro-2-fluoro-5-(morpholin-4-yl)benzyl]-7-ethyl-1-((R)-1-hydroxymethyl-2-methoxy-2-methylpropyl)-4-oxo-1,4-dihydroquinoline-3-carboxylic acid]	< 10
CC(C)(C)[C@@H](CO)n1cc(C(=O)O)c(=O)c2cc(Cc3cc(N4CCCC4=O)cc(Cl)c3F)ccc21 [Example 51, 6-[3-chloro-2-fluoro-5-(2-oxopyrrolidin-1-yl)benzyl]-1-((S)-1-hydroxymethyl-2,2-dimethylpropyl)-4-oxo-1,4-dihydroquinoline-3-carboxylic acid]	< 10
